In patent publication US20220315554A1, “COMPOUNDS COMPRISING A […] LIGAND AND USE THEREOF” (priority 2019, published 2022) one finds IC50 data, which are given here for five compounds.

One test deals with T1, Human recombinant FAP (Homo sapiens, UniProt Q12884).
T1 sequence (Q12884 1-760): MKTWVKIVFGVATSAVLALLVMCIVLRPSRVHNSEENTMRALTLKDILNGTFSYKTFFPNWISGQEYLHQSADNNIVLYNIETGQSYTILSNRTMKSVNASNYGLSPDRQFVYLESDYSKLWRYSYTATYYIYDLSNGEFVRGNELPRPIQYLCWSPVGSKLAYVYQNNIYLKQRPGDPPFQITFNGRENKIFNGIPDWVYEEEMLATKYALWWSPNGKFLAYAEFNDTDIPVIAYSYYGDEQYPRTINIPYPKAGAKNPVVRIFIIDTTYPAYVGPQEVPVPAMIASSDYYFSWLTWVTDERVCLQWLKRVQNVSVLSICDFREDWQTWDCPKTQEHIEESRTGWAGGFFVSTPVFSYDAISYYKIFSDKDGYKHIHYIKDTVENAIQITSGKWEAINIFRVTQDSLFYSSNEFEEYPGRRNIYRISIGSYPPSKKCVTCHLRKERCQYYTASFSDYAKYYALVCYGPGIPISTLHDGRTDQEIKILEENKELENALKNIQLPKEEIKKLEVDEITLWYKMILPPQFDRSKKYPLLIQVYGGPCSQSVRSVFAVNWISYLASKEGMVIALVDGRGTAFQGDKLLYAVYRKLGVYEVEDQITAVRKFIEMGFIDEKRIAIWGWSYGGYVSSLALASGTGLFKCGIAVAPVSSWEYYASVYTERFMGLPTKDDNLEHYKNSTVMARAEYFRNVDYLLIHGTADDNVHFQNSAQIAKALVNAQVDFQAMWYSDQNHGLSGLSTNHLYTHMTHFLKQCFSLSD
The test is described as follows: FRET-based FAP protease activity assay. Also noted: purchased R&D systems 3715-SE. The conditions noted are these: pIC50 Category (Activity), recombinant human FAP, FRET substrate, 37° C. In kind it is biochemical.

Test [1] has as its target T2, FAP-expressing human WI-38 fibroblasts (Homo sapiens, UniProt Q12884).
T2 construct: FAP-expressing human WI-38 fibroblasts (ECACC) were cultured in EMEM; host or cells: WI-38 human fibroblasts
T2 sequence (Q12884 1-760): T1 sequence (Q12884 1-760)
The test can be described thus: Competitive FACS binding assay. To be noted: pIC50 Category (FACS), competition with 3 nM Cy5-labeled compound, WI-38 fibroblasts, 4° C., 1 hour. The procedure:
Cells were analyzed in an Attune NxT flow cytometer. […]

Numbered stars: 1 amine (or outer) side, 2 acyl side, 3 side chain; on linkers, the order of the positions; unused ones are H or OH. Bridge positions count the residues as written; N and C are the ends. Square brackets hold non-standard residues; d marks the D form. Peptide text beside a SMILES is read from it. * marks the point of attachment. X2 = O=C(O)CN1CCN(CC(=O)O)CCN(CC(=O)NCCCOCCOCCOCCCN*)CCN(CC(=O)O)CC1; DOTA = O=C(O)CN1CCN(CC(=O)O)CCN(CC(=O)*)CCN(CC(=O)O)CC1; mXylylene = c1cc(C[*:1])cc(C[*:2])c1; Suc = O=C(CCC(=O)[*:2])[*:1]; Nle = CCCC[C@H](N)C(=O)O

As for `CCCC[C@H](NC(=O)CN1CCN(CC(=O)O)CCN(CC(=O)O)CCN(CC(=O)O)CC1)C(=O)N[C@H]1CSCc2cccc(c2)CSC[C@@H](C(=O)N[C@@H](CC(=O)O)C(=O)N[C@@H](Cc2c[nH]cn2)C(=O)N[C@@H](Cc2ccccc2)C(=O)N[C@@H](CCCNC(=N)N)C(=O)N[C@@H](CC(=O)O)C(N)=O)NC(=O)[C@H](Cc2ccccc2)NC(=O)[C@H](CCC(=O)O)NC(=O)[C@H]([C@@H](C)O)NC(=O)[C@@H]2CCCN2C(=O)[C@@H]2CCCN2C1=O` [3BP-3088, DOTA-Nle-[Cys(3MeBn)-Pro-Pro-Thr-Glu-Phe-Cys]-Asp-His-Phe-Arg-Asp-NH2] ({DOTA}-[Nle]CPPTEFCDHFRD-NH2; linker 2-8 via mXylylene), the IC50 (on Human recombinant FAP; in test [1]) was 100 to 794 nM each time.

In the case of `CSCC[C@H](NC(=O)CN1CCN(CC(=O)O)CCN(CC(=O)O)CCN(CC(=O)O)CC1)C(=O)N[C@H]1CSCc2cccc(c2)CSC[C@@H](C(=O)N[C@@H](CC(=O)O)C(=O)N[C@@H](Cc2c[nH]cn2)C(=O)N[C@@H](Cc2ccccc2)C(=O)N[C@@H](CCCNC(=N)N)C(=O)N[C@@H](CC(=O)O)C(N)=O)NC(=O)[C@H](Cc2ccccc2)NC(=O)[C@H](CCC(=O)O)NC(=O)[C@H]([C@@H](C)O)NC(=O)[C@@H]2CCCN2C(=O)[C@@H]2CCCN2C1=O` [3BP-3170, DOTA-Met-[Cys(3MeBn)-Pro-Pro-Thr-Glu-Phe-Cys]-Asp-His-Phe-Arg-Asp-NH2] ({DOTA}-MCPPTEFCDHFRD-NH2; linker 2-8 via mXylylene), the IC50 (on Human recombinant FAP; in test [1]) was 100 to 794 nM throughout.

On to `C[C@@H](O)[C@@H]1NC(=O)[C@@H]2CCCN2C(=O)[C@@H]2CCCN2C(=O)[C@@H](NC(=O)[C@H](Cc2ccccc2)NC(=O)CCC(=O)NCCCOCCOCCOCCCNC(=O)CN2CCN(CC(=O)O)CCN(CC(=O)O)CCN(CC(=O)O)CC2)CSCc2cccc(c2)CSC[C@@H](C(=O)N[C@@H](CC(=O)O)C(=O)N[C@@H](Cc2c[nH]cn2)C(=O)N[C@@H](Cc2ccccc2)C(=O)N[C@@H](CCCNC(=N)N)C(=O)N[C@@H](CC(=O)O)C(N)=O)NC(=O)[C@H](Cc2ccccc2)NC(=O)[C@H](CCC(=O)O)NC1=O` [3BP-3171, DOTA-Ttds-Phe-[Cys(3MeBn)-Pro-Pro-Thr-Glu-Phe-Cys]-Asp-His-Phe-Arg-Asp-NH2] ({X2-Suc}-FCPPTEFCDHFRD-NH2; linker 2-8 via mXylylene), for which the IC50 (at Human recombinant FAP; in test [1]) was 10 to 79.4 nM throughout.

As to `CC(C)C[C@H](NC(=O)CCC(=O)NCCCOCCOCCOCCOCCCNC(=O)CN1CCN(CC(=O)O)CCN(CC(=O)O)CCN(CC(=O)O)CC1)C(=O)N[C@H]1CSCc2cccc(c2)CSC[C@@H](C(=O)N[C@@H](CC(=O)O)C(=O)N[C@@H](Cc2c[nH]cn2)C(=O)N[C@@H](Cc2ccccc2)C(=O)N[C@@H](CCCNC(=N)N)C(=O)N[C@@H](CC(=O)O)C(N)=O)NC(=O)[C@H](Cc2ccccc2)NC(=O)[C@H](CCC(=O)O)NC(=O)[C@H]2NC(=O)[C@@H]3C(CCN3C(=O)[C@@H]3CCCN3C1=O)[C@H]2O` [3BP-3172, DOTA-Ttds-Leu-[Cys(3MeBn)-Pro-Pro-Thr-Glu-Phe-Cys]-Asp-His-Phe-Arg-Asp-NH2], the IC50 (on Human recombinant FAP; in test [1]) was under 10 nM throughout.

Regarding `C[C@@H](O)[C@@H]1NC(=O)[C@@H]2CCCN2C(=O)[C@@H]2CCCN2C(=O)[C@@H](NC(=O)[C@H](CCC(=O)O)NC(=O)CCC(=O)NCCCOCCOCCOCCCNC(=O)CN2CCN(CC(=O)O)CCN(CC(=O)O)CCN(CC(=O)O)CC2)CSCc2cccc(c2)CSC[C@@H](C(=O)N[C@@H](CC(=O)O)C(=O)N[C@@H](Cc2c[nH]cn2)C(=O)N[C@@H](Cc2ccccc2)C(=O)N[C@@H](CCCNC(=N)N)C(=O)N[C@@H](CC(=O)O)C(N)=O)NC(=O)[C@H](Cc2ccccc2)NC(=O)[C@H](CCC(=O)O)NC1=O` [3BP-3173, DOTA-Ttds-Glu-[Cys(3MeBn)-Pro-Pro-Thr-Glu-Phe-Cys]-Asp-His-Phe-Arg-Asp-NH2] ({X2-Suc}-ECPPTEFCDHFRD-NH2; linker 2-8 via mXylylene), the IC50 (on Human recombinant FAP; in test [1]) was 10 to 79.4 nM each time.

As a reminder, the IC50 is the concentration that inhibits the measured activity by half.
